Legend:
male Sprague-Dawley rats = assay: Post-Incisional (Brennan) Pain Test; format: in vivo; settings: rat, oral; for cumulative pain score, 4 h: 4 h post-dosing; for cumulative pain score, 24 h: 24 h post-dosing
Experimental: Incisional pain was induced in non-fasted male Sprague-Dawley rats weighing 180-300 g by making a 1-cm plantar incision in the left hind paw and is designed to mimic pain and sensitivity similar to what is reported by patients after surgery. Dosing occurred at the time of incision and spontaneous pain was measured 4 and 24 hours post-dosing using a cumulative pain score. The unrestrained animals were placed on a metal mesh platform and allowed to acclimate for about 15 min/ Each animal was closely observed during a 1-min period repeated every 5 min for 1 h (12 times total). Depending on the position in which the foot was found during the scoring period, a score of 0, 1, or 2 was given. Full weight bearing of the foot (score=0) was present if the skin on the plantar surface of the paw wound was blanched or distorted by the mesh. If the foot was completely off the mesh, or one or more instances of licking or flinching was observed, a score of 2 was recorded and the licking or flinching was noted but not counted. If the plantar surface of the paw touched the mesh without blanching or distorting, a score of 1 was given. The sum of the 12 scores obtained during the 1 h session was calculated (maximum score=24) for each animal. Observations were made during hours 4 and 24. Test articles were administered orally at concentrations of 10, 30 or 100 mg/kg and ketoprofen was administered subcutaneously at a concentration of 10 mg/kg. The control group received the vehicle (sterile water). In Table 6, ‘A’ designates a cumulative pain score of ≤11, ‘B’ designates >11 and ≤16, and ‘C’ designates >16.
The results provided in Table 6 are for oral administration in rats.

COX-1 = COX-1 (Homo sapiens, UniProt P23219); assay: NSAIDS and Opioid Receptor Test: COX-1; format: biochemical; settings: 200 μM
Experimental: (§1) Compounds were screened as DMSO solutions at 10 μM, 100 μM, or 200 μM and values represent percent inhibition of control-specific binding. […] As NSAID and opioid mechanisms of action are precluded, a person of ordinary skill in the art understands that undesirable side effects associated with inhibition of COX receptors in NSAIDs and activation of opiate receptors in opioids can be avoided by compounds described herein. Furthermore, opioids are known to lose their analgesic potency after to continued administration. (See Benyamin, et al. “Opioid Complications and Side Effects” Pain Physician 11 (2008): S105-S120). As the data indicates compounds described herein have a different mechanism action compared to opioids, a person of ordinary skill in the art would appreciate that compounds described herein would not be expected to lose their analgesic potency like opioids after continued admininistration.

COX-2 = target: T1, COX-2 (Homo sapiens, UniProt P35354); assay: NSAIDS and Opioid Receptor Test: COX-2; format: biochemical; settings: 200 μM
T1 sequence (P35354 18-604): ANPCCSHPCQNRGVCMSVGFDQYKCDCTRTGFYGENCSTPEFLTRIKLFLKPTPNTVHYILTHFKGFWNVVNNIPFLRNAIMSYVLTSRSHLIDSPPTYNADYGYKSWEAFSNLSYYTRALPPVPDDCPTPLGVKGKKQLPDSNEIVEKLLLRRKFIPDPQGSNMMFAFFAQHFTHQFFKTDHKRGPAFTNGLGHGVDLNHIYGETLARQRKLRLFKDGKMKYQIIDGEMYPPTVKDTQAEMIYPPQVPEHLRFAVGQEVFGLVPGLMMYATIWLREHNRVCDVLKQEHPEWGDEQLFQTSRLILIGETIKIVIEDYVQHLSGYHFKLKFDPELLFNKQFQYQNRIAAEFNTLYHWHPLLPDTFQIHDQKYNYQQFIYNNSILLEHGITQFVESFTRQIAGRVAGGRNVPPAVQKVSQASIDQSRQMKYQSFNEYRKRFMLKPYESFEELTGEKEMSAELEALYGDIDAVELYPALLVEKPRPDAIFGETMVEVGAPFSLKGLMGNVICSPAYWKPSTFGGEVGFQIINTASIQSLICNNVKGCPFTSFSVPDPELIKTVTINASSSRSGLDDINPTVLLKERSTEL
Experimental: as §1

COX-1, sequence (P23219 24-599): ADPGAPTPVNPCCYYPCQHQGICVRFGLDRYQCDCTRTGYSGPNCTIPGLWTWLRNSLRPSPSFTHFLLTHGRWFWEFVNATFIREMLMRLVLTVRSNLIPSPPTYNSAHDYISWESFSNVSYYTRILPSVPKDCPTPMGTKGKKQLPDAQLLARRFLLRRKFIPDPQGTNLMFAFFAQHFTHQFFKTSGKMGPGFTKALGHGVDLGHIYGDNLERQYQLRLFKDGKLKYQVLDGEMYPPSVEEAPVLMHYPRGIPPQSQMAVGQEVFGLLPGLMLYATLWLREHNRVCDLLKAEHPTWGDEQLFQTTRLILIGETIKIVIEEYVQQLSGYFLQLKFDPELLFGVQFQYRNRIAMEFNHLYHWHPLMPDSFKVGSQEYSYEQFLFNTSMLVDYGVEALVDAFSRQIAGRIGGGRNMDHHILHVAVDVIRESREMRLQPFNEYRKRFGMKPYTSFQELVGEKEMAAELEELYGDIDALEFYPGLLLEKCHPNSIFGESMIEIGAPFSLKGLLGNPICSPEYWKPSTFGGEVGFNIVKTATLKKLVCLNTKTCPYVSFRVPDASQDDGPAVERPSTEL

Compound | cumulative pain score, 4 h (male Sprague-Dawley rats; 10 mg/kg) | cumulative pain score, 24 h (male Sprague-Dawley rats; 10 mg/kg) | cumulative pain score, 4 h (male Sprague-Dawley rats; 30 mg/kg) | cumulative pain score, 24 h (male Sprague-Dawley rats; 30 mg/kg) | cumulative pain score, 4 h (male Sprague-Dawley rats; 100 mg/kg) | cumulative pain score, 24 h (male Sprague-Dawley rats; 100 mg/kg) | inhibition at 200 µM (COX-1) [%] | inhibition at 200 µM (COX-2) [%]
Cl.NC12CC(c3nc(C(F)(F)F)cs3)(C1)C2 [Compound 1, 3-(4-(Trifluoromethyl)thiazol-2-yl)bicyclo[1.1.1]pentan-1-amine hydrochloride] | C (>16) | B (>11 and ≤16) | A (a cumulative pain score of ≤11) | A (a cumulative pain score of ≤11) | A (a cumulative pain score of ≤11) | A (a cumulative pain score of ≤11) | – | –
Cc1sc(C23CC(N)(C2)C3)nc1C(F)(F)F.Cl [Compound 2, 3-(5-Methyl-4-(trifluoromethyl)thiazol-2-yl)bicyclo[1.1.1]pentan-1-amine hydrochloride] | – | – | – | – | – | – | 15 | -2

Source: US11242327B2, “Analgesic compounds” (RECURIUM IP HOLDINGS, LLC, priority 2017, dated 2022)
